“Also recorded” adds a separate entry of the source. Square brackets hold non-standard residues; d marks the D form. Peptide text beside a SMILES is read from it. pGlu = O=C1CC[C@@H](C(=O)O)N1
Tested on: GtH-II secretion in female gilthead seabream
Assay: In vivo gonadotropin-releasing potency: plasma GtH-II by homologous radioimmunoassay after intramuscular injection of GnRH peptides
Design: species or system Sparus aurata
Conditions: for gonadotropin (GtH-II) secretion of sbGnRH, its analogs and the mGnRH analog compared (in words) / blood GtH-II levels, times higher than in sbGnRH-injected females: third experiment; for gonadotropin (GtH-II) secretion of sbGnRH, its analogs and the mGnRH analog compared (in words): 5 μg/kg body weight, 1.5, 4 and 8 hours post-injection; for GtH-II levels, times higher than in saline-injected fish: 25 μg/kg body weight; for stimulation of GtH-II secretion (in words): reproductively mature seabream females, native peptides injected at 5 and 25 μg/kg body weight
Procedure: During the spawning season, 104 female seabream at 2 years of age, weighing 458±104 g, with preovulatory oocytes of 500-600 μm in diameter were selected for experimentation. Oocyte developmental stage was determined by microscopic examination of a freshly removed ovarian biopsy, as previously described (Zohar et al., 1979, J. Fish Biol. 15:665-670). The bioactivity of the native forms of GnRH and of the GnRH analogs was studied in three consecutive experiments, carried out on day 1, day 3, and day 8. The first experiment included four groups of eight females. Three groups were injected with 5 μg/kg body weight of either sbGnRH, sGnRH or cGnRH-II. The fourth group was injected with saline. The second experiment included four similar groups, except that the peptides were injected at a dose of 25 μg/kg body weight. The third experiment included five groups, each with eight females. One group was injected with native sbGnRH; two other groups were each injected with an analog of sbGnRH, the [D-Ala^6,Pro^9 -NEt]-sbGnRH and [D-Arg^6,Pro^9 -NEt]-sbGnRH; another group was injected with the analog of the mammalian GnRH, [D-Ala^6,Pro^9 -NEt]-mGnRH; and the last group was injected with saline. All peptides in the third experiment were injected at a dose of 5 μg/kg body weight.
In all experiments, the tested peptides were injected into the dorsal musculature, in a volume of 0.5 ml/kg body weight. Each group of fish was held in a separate 600 liter tank exposed to natural photoperiod conditions and supplied with sea water at 20° C. Fish were bled before the injection of the peptides and at 1.5, 4 and 8 hours post-injection. At each bleeding time, 1 ml of blood was removed from the caudal vessels, using a 1 ml syringe fit with a 21G needle. Prior to injection and bleeding, fish were anesthetized in 0.2 ppt of 2-phenoxy-ethanol. Blood was immediately centrifuged and plasma removed and frozen. Levels of seabream GtH-II in the plasma samples were measured using a homologous and specific radioimmunoassay, as previously described (Zohar et al., 1990, Aquaculture 88:189-204). Blood GtH-II levels in the various groups were statistically compared using ANOVA followed by Duncan new multiple range comparison test.

[1] = 5 μg/kg body weight, 1.5 hours post-injection
[2] = 5 μg/kg body weight, 4 hours after injection
[3] = 5 μg/kg dose, 1.5 hr after injection
[4] = 25 μg/kg body weight, 1.5, 4 and 8 hours post-injection
[5] = 25 μg/kg dose, 1.5 hr after injection
[6] = native GnRH forms, 5 and 25 μg/kg body weight

Row | SMILES | gonadotropin (GtH-II) secretion of sbGnRH, its analogs and the mGnRH analog compared (in words) | blood GtH-II levels, times higher than in sbGnRH-injected females (5 μg/kg body weight, 1.5 hr) [times] | blood GtH-II levels, times higher than in sbGnRH-injected females (5 μg/kg body weight, 8 hr) [times] | blood GtH-II levels, times higher than in control females [1] | blood GtH-II levels, times higher than in control females [2] | blood GtH-II levels versus control females (5 μg/kg body weight, 8 hours post-injection) | potency in inducing GtH-II secretion, times more potent than sGnRH [3] [times] | potency in inducing GtH-II secretion, times more potent than sbGnRH [3] [times] | GtH-II-releasing potency of the native peptides compared (in words) [4] | GtH-II levels, times higher than in saline-injected fish (1.5 hr after injection) [times] | GtH-II levels, times higher than in saline-injected fish (4 hr after injection) [times] | GtH-II levels, times higher than in saline-injected fish (8 hr after injection) [times] | potency in inducing GtH-II secretion, times more potent than sGnRH [5] [times] | potency in inducing GtH-II secretion, times more potent than sbGnRH [5] [times] | GtH-II-releasing potency of the native peptides compared (in words) [6] | stimulation of GtH-II secretion (in words)
1 | CCNC(=O)[C@@H]1CCCN1C(=O)[C@H](CO)NC(=O)[C@H](CC(C)C)NC(=O)[C@@H](C)NC(=O)[C@H](Cc1ccc(O)cc1)NC(=O)[C@H](CO)NC(=O)[C@H](Cc1c[nH]c2ccccc12)NC(=O)[C@H](Cc1c[nH]cn1)NC(=O)[C@@H]1CCC(=O)N1 [[D-Ala^6,Pro^9-.NEt]-sbGnRH, [D-Ala^6,Pro^9 -NEt]-sbGnRH] ([pGlu]HWSY[dA]LSP-NHEt) | significantly stronger gonadotropin secretion than did the native sbGnRH; also recorded: equipotent; also recorded: much less potent; also recorded: in the same range as those induced by the native sGnRH and cGnRH-II | 5 | 2.5 | – | – | – | – | – | – | – | – | – | – | – | – | –
2 | CCNC(=O)[C@@H]1CCCN1C(=O)[C@H](CO)NC(=O)[C@H](CC(C)C)NC(=O)[C@@H](CCCNC(=N)N)NC(=O)[C@H](Cc1ccc(O)cc1)NC(=O)[C@H](CO)NC(=O)[C@H](Cc1c[nH]c2ccccc12)NC(=O)[C@H](Cc1c[nH]cn1)NC(=O)[C@@H]1CCC(=O)N1 [[D-Arg^6, Pro^9 -NEt]-sbGnRH] ([pGlu]HWSY[dR]LSP-NHEt) | – | 5 | 2.5 | – | – | – | – | – | – | – | – | – | – | – | – | –
3 | NC(=O)CNC(=O)[C@@H]1CCCN1C(=O)[C@H](Cc1ccc(O)cc1)NC(=O)[C@H](Cc1c[nH]c2ccccc12)NC(=O)CNC(=O)[C@H](Cc1c[nH]cn1)NC(=O)[C@H](CO)NC(=O)[C@H](Cc1c[nH]c2ccccc12)NC(=O)[C@H](Cc1c[nH]cn1)NC(=O)[C@@H]1CCC(=O)N1 [cGnRH-II, pGlu-His-Trp-Ser -His-Gly-Trp-Tyr-Pro-Gly-NH2, reference compound] ([pGlu]HWSHGWYPG-NH2) | – | – | – | 14.50 times | 6.2 times | higher GtH-II levels | 1.75 | 8 | cGnRH-II>sGnRH>sbGnRH; also recorded: induced higher GtH-II secretion than did sGnRH or sbGnRH | 31.0 | 10.9 | 5.5 | 2 | 7 | significantly more potent than the novel sbGnRH | significantly stimulate GtH-II secretion
4 | CC(C)C[C@H](NC(=O)CNC(=O)[C@H](Cc1ccc(O)cc1)NC(=O)[C@H](CO)NC(=O)[C@H](Cc1c[nH]c2ccccc12)NC(=O)[C@H](Cc1c[nH]cn1)NC(=O)[C@@H]1CCC(=O)N1)C(=O)N[C@@H](CO)C(=O)N1CCC[C@H]1C(=O)NCC(N)=O [sbGnRH, pGlu-His-Trp-Ser-Tyr-Gly-Leu-Ser-Pro-Gly-NH 2] | did not induce significant release of GtH-II | – | – | tended to be higher than in the control females | not different from control levels | – | – | – | cGnRH-II>sGnRH>sbGnRH | 4.4 | – | – | – | – | less active than cGnRH-II and sGnRH | significantly stimulate GtH-II secretion

Source: patent US5643877A, “Compounds comprising gonadotropin releasing hormone (GnRH) and methods for controlling reproduction in fish” (University of Maryland Biotechnology Institute, priority 1994, dated 1997)
